Consider two compounds from article PMC13242511, “Disrupting Notch signalling by a small molecule inhibiting dihydroorotate dehydrogenase activity” (Scientific Reports, 2026).

Holding throughout (format): cell-based
One assay relates to BT-20 cells. Briefly: Growth inhibition, metabolic activity (CellTiter-Glo). The conditions noted are these: Homo sapiens; BT-20, six days; read-out: approximated IC50, metabolic activity. The text has this: (§1) We next investigated whether compounds A-E affected growth and viability of cell lines from T-cell acute lymphoblastic leukaemia (T-ALL) and breast cancer, two tumour types in which elevated Notch signalling has been implicated in tumorigenesis. […] When testing analogues of compounds B and C, five of the seven B analogues and one of the two C analogues produced dose–response curves and IC50s, which however were higher compared to the original hits (Supplemental Fig. 5A; IC50s are presented in Supplemental Table 6).
(§2) Compounds were spotted on white 384-well tissue culture plates (Greiner, cat #781080) using an Echo 525 Acoustic liquid handler (Labcyte). Cells were grown to 80% confluence, detached if required, counted and 20 µl containing 2000–4000 cells per well was then seeded in each well and cultivated for three (4,000 cells seeded) and six days (2,000 cells seeded). […] Luciferase activity (reading out metabolic activity) was determined using the CellTiter-Glo 2.0 kit (CTG, Promega, cat #G9242) following the manufacturer’s instructions and luminescence was measured on a SpectraMaxi3 or Varioscan plate reader (Molecular Devices, Thermofisher).
A general note: In ATP-based viability assays light output follows the ATP content of the culture.

Another assay has as its system MDA-MB-436 cells. The assay is described as above. Conditions: Homo sapiens; MDA-MB-436, six days; read-out: approximated IC50, metabolic activity.
Excerpt: as §1, §2

A further assay deals with HES-1 in JURKAT cells. Briefly: Western blot analysis of HES1 protein. Conditions: 2 µM, 48 h, Fig. 8C. The procedure: (§3) Cells were washed in ice-cold PBS and incubated for 30 min on ice with RIPA cell lysis buffer (Thermofisher, cat #89900) containing protease and phosphatase inhibitors (Thermofisher, cat #78442), scraped off and homogenized using a 25G syringe, and subsequently centrifugated for 10 min at > 13,000xg. […] After electrophoresis, gels were placed directly onto a TransBlot Turbo PVDF or nitrocellulose membrane (Bio-rad, cat #1704157 and cat #1704159) and transferred using the “HIGH MW” protocol (Bio-Rad). Subsequently, membranes were blocked for 1 h at room temperature using Clear Milk Blocking Buffer (ThermoFisher, cat #37587) supplemented with 0.1% Tween20 (Sigma-Aldrich, cat #P1379). Detection of antibody binding was performed by using Clarity Western ECL-Substrate (Bio-rad, cat #1705060S). Beta-Actin protein signals were used as a loading control. Western blot membranes were in some experiments stripped after development (indicated in the figure in each respective case) by washing the membranes twice for 10 min in PBS, followed by incubation in membranes in western blot stripping buffer (ThermoFisher, cat #21059) for 30 min at room temperature and gentle agitation. […] Protein expression levels of western blot bands were quantified using Fiji (V.2.16) with beta-Actin signals for normalisation (Supplemental Table 8). […]
For orientation: A western blot detects proteins with antibodies after separation by electrophoresis.

The next assay concerns HES1 in MDA-MB-231 cells. Briefly: Western blot analysis of HES1 protein. Conditions: MDA-MB-231, 2 µM, 48 h; Fig. 8C. The procedure: as §3
Another assay concerns NOTCH1. Briefly: Cell surface biotinylation experiment. Conditions: MDA-MB-231, 2 µM, 24 h; Fig. 8B. The procedure:
For labelling of membrane proteins, MDA-MB-231 cells were grown to 80% confluency in 6-well cell culture dishes (ThermoFisher, cat #104675) and treated with 2 µM of the indicated compounds for 24 h. Plates were then put on ice for 10 min to slow down cellular metabolism and halt internalisation of membrane proteins. Next, 0.5 mg/ml Sulfo-NHS-Biotin (ThermoFisher, cat #21217) in PBS was added to every second well for 40 min and non-treated wells served as controls. Excess of biotin was removed by washing the plates with PBS followed by incubation with 100 mM glycin (Sigma-Aldrich, cat #G8898) in PBS on ice. Wells were washed twice with ice-cold PBS and next, 500 µl lysis buffer was added to each well (50 mM Tris–HCl pH 7.4, 150 mM NaCl, 1% Triton X-100, (Sigma-Aldrich, cat #X100), 2 mM EDTA, including protease and phosphatase inhibitors, Thermofisher, cat #78442). […] NOTCH1 TMICD western blot band intensity was quantified using Fiji (ImageJ) after background subtraction. Relative enrichment of NOTCH1 protein present at the cell surface was calculated with IP/Input ratio (IP NOTCH1/Input NOTCH1). Input and corresponding IP fraction of a treatment were separated on the same gel and bands were measured while non-saturated. Two independent biological replicates were assessed.

Another assay relates to Notch signalling. Briefly: DHODH inhibitor and uridine rescue experiment (Notch reporter assay). The conditions noted are these: 1 and 10 µM, 24 h. The procedure:
HEK293T Notch reporter cells (#A1-11) were grown to 80% confluency, detached and mixed with the indicated compounds and doses with or without uridine (Sigma-Aldrich, cat #U3003). 10,000 cells/well were then seeded into 96-well cell culture plates (ThermoFisher, cat #136102) and incubated for 24 h. DMSO treatment with or without uridine served as control for each treatment. Cells were then subjected to Notch reporter assays, and luciferase signals were recorded on a Varioscan Lux microplate reader (ThermoFisher). Reporter signals from each treatment were normalised to the respective DMSO control, as described above and three independent assays were recorded with at least two technical replicates per treatment.

What is called pIC50 is the negative decadic logarithm of the IC50, by convention in mol/L.

pIC50: −log10 of the molar value.

`Cc1ccc2[nH]c3c(c2c1)CCOC31CCN(Cc2ccccc2-c2ccccc2)CC1` [compound B]: the negative logarithm of the IC50 (pIC50) in the assay on BT-20 cells is 5.49; in the assay with MDA-MB-436 cells, 5.70.

`COc1cccc(CNc2ccc(N3CCCCC3)cc2)c1OCc1cccs1` [compound C]: the “level of HES-1 protein” value in the assay on HES-1 in JURKAT cells is recorded as “reduced”. Further, the HES1 protein levels result in the assay on HES1 in MDA-MB-231 cells is reported as “reduction in HES1 levels”. Besides, in the assay with NOTCH1, the NOTCH1 surface presentation entry is reported as “not hindered”. Besides, the “effect on Notch reporter activity after addition of uridine” value in the assay on Notch signalling (plus 100 µM uridine) is listed as “reversed”. Further, the “Notch reporter assay activity” value in the assay on Notch signalling (without uridine) was “reduced the reporter assay activity”.
